This is an account of results in US20250032635A1, “LIGAND-POLAR DRUG CONJUGATES” (priority 2023, published 2025).

pIC50: −log10 of the molar value.

For one assay, the system named is SK-BR-3. Kind of assay: In vitro cytotoxicity assay, SK-BR-3. The note with it: SK-BR-3, HER2+++. Format: cell-based. From the text: (§1) Breast cancer cell line MDA-MB-231 and SK-BR-3, gastric cancer cell line NCI-N87, ovarian cancer cell line SK-OV-3, and pancreatic cancer cell line Capan-1 were purchased from ATCC. Breast cancer cell line JIMT-1 was purchased from Deutsche Sammlung von Mikroorganismen und Zellkulturen (DSMZ, Germany). Gastric cancer cell line MKN45 was purchased from RIKEN. Human umbilical vein endothelial cell line (HUVAC) was purchased from BCRC (Bioresource Collection and Research Center, Hsinchu City, Taiwan).
(§2) Human MDR1 overexpressed NCI-N87 (NCI-N87-hMDR1) cell line was produced by lentiviral vector-mediated gene transduction. Briefly, the lentiviral transfer vector contains both hEF1α promotor-driven hMDR1 coding sequence (CDS) and hPGK promoter-driven EGFP-IRES-Puro bicistronic cassette. The lentivirus was packaged using second-generation lentiviral system in 293T cell line. After transfection, stable NCI-N87-hMDR1 was selected and maintained in puromycin (0.55 μg/mL) containing RPMI-1640 medium. JIMT-1 and MDA-MB-231 were maintained in DMEM supplemented with 10% heat-inactivated fetal bovine serum (FBS). […]
(§3) In vitro cytotoxicity assays were performed as previously described (Boyd and Paull, 1995; Phillips et al., 2008). […] IC50, the half maximal inhibitory concentration, was calculated from dose-response curves which was generated by four-parameter curve fitting.

The next assay concerns NCI-N87. Kind of assay: In vitro cytotoxicity assay, NCI-N87. The assay is classed as cell-based.
From the text: as §1
(§4) Human MDR1 overexpressed NCI-N87 (NCI-N87-hMDR1) cell line was produced by lentiviral vector-mediated gene transduction. Briefly, the lentiviral transfer vector contains both hEF1α promotor-driven hMDR1 coding sequence (CDS) and hPGK promoter-driven EGFP-IRES-Puro bicistronic cassette. The lentivirus was packaged using second-generation lentiviral system in 293T cell line. After transfection, stable NCI-N87-hMDR1 was selected and maintained in puromycin (0.55 μg/mL) containing RPMI-1640 medium. JIMT-1 and MDA-MB-231 were maintained in DMEM supplemented with 10% heat-inactivated fetal bovine serum (FBS). NCI-N87, NCI-N87-hMDR1, SK—OV-3, and MKN45 were maintained in RPMI-1640 supplemented with 10% heat-inactivated FBS. SK-BR-3 was maintained in McCoy's 5A supplemented with 10% heat-inactivated FBS. Capan-1 was maintained in IMDM supplemented with 20% heat-inactivated FBS. HUVAC was maintained in M199 supplemented with 25 U/mL heparin, 30 μg/mL ECGS and 10% heat-inactivated FBS. All cell lines were cultured at 37° C. under 5% CO2 atmosphere.
(§5) In Vitro Cytotoxicity Assays of APDCs
as §3

Another assay relates to JIMT-1. The assay is described as follows: In vitro cytotoxicity assay, JIMT-1. The note with it: JIMT-1, HER2++. The assay is classed as cell-based.
From the text: as §1, §2, §3

For another assay, the system named is Capan-1. The assay is described as follows: In vitro cytotoxicity assay, Capan-1. Conditions: Capan-1, HER2++. The assay is classed as cell-based.
From the text: as §1, §2, §3

The subject of a further assay is MKN45. The assay is described as follows: In vitro cytotoxicity assay, MKN45. Format: cell-based. The note with it: MKN45, HER2+.
From the text: as §1, §2, §3

The test system of another assay is MDA-MB-231. The assay is described as follows: In vitro cytotoxicity assay, MDA-MB-231. The assay is classed as cell-based. Conditions: MDA-MB-231, HER2+.
From the text: as §1, §2, §3

The test system of another assay is NCI-N87-hMDR1. The assay is described as follows: In vitro cytotoxicity assay, MDR1-overexpressing NCI-N87-hMDR1. The assay is classed as cell-based. On the procedure: as §4, §5, §3
A further assay deals with JIMT-1 xenograft. Kind of assay: JIMT-1 xenograft tumor model, cytotoxic APDCs. Format: in vivo, mice. Conditions: single intravenous injection 10 mg/kg at day zero. The method, then:
Xenograft Tumor Model Experiments for Cytotoxic APDCs
Experiments of xenograft tumor model with cytotoxic APDCs were performed as previously described (Jumbe et al., 2010).

Turning to Trastuzumab emtansine [Kadcyla], the negative-log IC50 (pIC50) in the assay with SK-BR-3 (Table 2) was 10.22; in the assay on NCI-N87 (NCI-N87, HER2+++, Table 2) it was 9.82; with NCI-N87 (NCI-N87, Table 4 (MDR1 comparison)), 9.42; in the assay on JIMT-1 (Table 2), 7.85; with Capan-1 (Table 2) it was 7.07; in the assay on MKN45 (Table 2) it was 7.28. For the same substance, the pIC50 with MDA-MB-231 (Table 2) was 7.21; in the assay on NCI-N87-hMDR1 (NCI-N87-hMDR1, Table 4), 8.60. The 50% growth inhibitory concentration (GI50) in the assay on SK-BR-3 (Table 3) stood at 0.052 nM; with NCI-N87 (NCI-N87, HER2+++, Table 3), 0.24 nM; in the assay on NCI-N87 (NCI-N87, Table 5 (MDR1 comparison)), 0.53 nM; with JIMT-1 (Table 3) it was 15 nM; in the assay on Capan-1 (Table 3), 64 nM; in the assay on MKN45 (Table 3), 107 nM. Besides, the GI50 was 156 nM in the assay on MDA-MB-231 (Table 3) and 6.7 nM with NCI-N87-hMDR1 (NCI-N87-hMDR1, Table 5). Besides, in the assay with NCI-N87-hMDR1 (ratio of GI50 values, Table 5), the “NCI-N87/NCI-N87-hMDR1 (folds), GI50” value is listed as 13 folds. Besides, in the assay on JIMT-1 xenograft, the “tumor volume as a function of time (FIG. 1)” value is “significant tumor growth”.

As a reminder, the pIC50 is the IC50 on a negative log10 scale, so that one unit is a factor of ten. The low end stands for a high IC50, the high end for a low IC50. By GI50 is commonly meant the concentration that inhibits growth by half. Read a low GI50 as greater sensitivity of the cells.
